Earlier results, collected in patent US20250032488A1, “METHODS OF TREATMENT USING LOU064” (NOVARTIS AG, priority 2021, published 2025).
Values joined by “and” are separate entries in the source; they are usually repeats but may differ in a detail not shown here. Identical values can stand only once. Like-named read-outs stand apart in the source and are kept apart here.

Legend:
[1] = human, in vivo; cited from earlier work
[2] = 75 mg b.i.d., Phase II; cited from earlier work
[3] = higher dose treatment arms, phase IIa; cited from earlier work

For `C=CC(=O)N1CCC[C@@H](n2c(=O)n(-c3ccc(Oc4ccccc4)cc3)c3c(N)nccc32)C1` [tolebrutinib], which Dose-limiting side effect [1] is on record?
Its Dose-limiting side effect is “dose-limiting diarrhea”.

With `C=CC(=O)N1CCC(CNc2ncnc(N)c2-c2ccc(Oc3ccccc3)cc2)CC1` [evobrutinib] as the compound, how does the Dose-limiting side effect [2] read?
The Dose-limiting side effect was “dose-limiting liver enzyme elevations”.

With `C[C@H]1CN(C2COC2)CCN1c1ccc(Nc2cc(-c3ccnc(N4CCn5c(cc6c5CC(C)(C)C6)C4=O)c3CO)cn(C)c2=O)nc1` [fenebrutinib] as the compound, how does the “Subjects with transient grade 3 elevations of ALT and/or AST” value [3] read?
The value was 8.3% and 6.3%.
